Laboratory results reported in patent US20140348819A1, “Methods of Treating Cancer” (Dana-Farber Cancer Institute, Inc., priority 2011, published 2014).

System: six V600E BRAF melanoma cell lines
Test: Screening of recombinant RTK ligands for ability to confer resistance to BRAFi (PLX4720) or MEKi (PD184352) (Table 4)
Assay type: cell-based, human
Design: ability of recombinant RTK ligand to confer resistance / ability of recombinant RTK ligand to confer resistance (screening value): scale not given here
In short: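 Resistance to BRAFi (PLX4720) or MEKi (PD184352) was tested in six V600E BRAF melanoma lines given one of 22 recombinant RTK ligands. For a subset of RTKs, activation was checked by high-throughput tyrosine kinase phosphorylation profiling and western blot.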

Which “ability of recombinant RTK ligand to confer resistance” value (“ability of recombinant RTK ligand” for short) (A2058, PD184352 - 1 uM, ligand 1.6 ng/ml) does the source give for neuregulin 1 here?
Its value is 1.04.

What about the “ability of recombinant RTK ligand” value (A2058, PD184352 - 1 uM, ligand 6.25 ng/ml) of the same substance?
Its value is 1.08.

And the “ability of recombinant RTK ligand” value (A2058, PD184352 - 1 uM, ligand 25 ng/ml)?
Its value is 1.14.

And the “ability of recombinant RTK ligand” value (A2058, PD184352 - 1 uM, ligand 100 ng/ml)?
Its value is 1.18.

What about the “ability of recombinant RTK ligand” value (A2058, PD184352 - 1 uM, ligand 400 ng/ml) of the same substance?
Its value is 1.27.

What about the “ability of recombinant RTK ligand” value (A2058, PLX4720 - 2 uM, ligand 1.6 ng/ml) of the same substance?
Its value is 1.05.

And the “ability of recombinant RTK ligand” value (A2058, PLX4720 - 2 uM, ligand 6.25 ng/ml)?
The value was 1.07.

And the “ability of recombinant RTK ligand” value (A2058, PLX4720 - 2 uM, ligand 25 ng/ml)?
The value was 1.12.

What about the “ability of recombinant RTK ligand” value (A2058, PLX4720 - 2 uM, ligand 100 ng/ml) of the same substance?
The value was 1.09.

What about the “ability of recombinant RTK ligand” value (A2058, PLX4720 - 2 uM, ligand 400 ng/ml) of the same substance?
The value was 1.22.

And the “ability of recombinant RTK ligand” value (C32, PD184352 - 1 uM, ligand 1.6 ng/ml)?
Its value is 1.12.

And the “ability of recombinant RTK ligand” value (C32, PD184352 - 1 uM, ligand 6.25 ng/ml)?
Its value is 1.20.

What about the “ability of recombinant RTK ligand” value (C32, PD184352 - 1 uM, ligand 25 ng/ml) of the same substance?
Its value is 1.24.

What about the “ability of recombinant RTK ligand” value (C32, PD184352 - 1 uM, ligand 100 ng/ml) of the same substance?
The value was 1.52.

And the “ability of recombinant RTK ligand” value (C32, PD184352 - 1 uM, ligand 400 ng/ml)?
Its value is 1.32.

And the “ability of recombinant RTK ligand” value (C32, PLX4720 - 2 uM, ligand 1.6 ng/ml)?
The value was 1.01.

What about the “ability of recombinant RTK ligand” value (C32, PLX4720 - 2 uM, ligand 6.25 ng/ml) of the same substance?
The value was 1.07.

And the “ability of recombinant RTK ligand” value (C32, PLX4720 - 2 uM, ligand 25 ng/ml)?
Its value is 1.10.

And the “ability of recombinant RTK ligand” value (C32, PLX4720 - 2 uM, ligand 100 ng/ml)?
Its value is 1.20.

What about the “ability of recombinant RTK ligand” value (C32, PLX4720 - 2 uM, ligand 400 ng/ml) of the same substance?
The value was 1.22.

What about the “ability of recombinant RTK ligand” value (Colo 829, PD184352 - 1 uM, ligand 1.6 ng/ml) of the same substance?
Its value is 1.10.

And the “ability of recombinant RTK ligand” value (Colo 829, PD184352 - 1 uM, ligand 6.25 ng/ml)?
The value was 1.04.

What about the “ability of recombinant RTK ligand” value (Colo 829, PD184352 - 1 uM, ligand 25 ng/ml) of the same substance?
The value was 1.11.

What about the “ability of recombinant RTK ligand” value (Colo 829, PD184352 - 1 uM, ligand 100 ng/ml) of the same substance?
The value was 1.37.

What about the “ability of recombinant RTK ligand” value (Colo 829, PD184352 - 1 uM, ligand 400 ng/ml) of the same substance?
Its value is 1.21.

And the “ability of recombinant RTK ligand” value (Colo 829, PLX4720 - 2 uM, ligand 1.6 ng/ml)?
Its value is 0.03.

What about the “ability of recombinant RTK ligand” value (Colo 829, PLX4720 - 2 uM, ligand 6.25 ng/ml) of the same substance?
Its value is 0.98.

What about the “ability of recombinant RTK ligand” value (Colo 829, PLX4720 - 2 uM, ligand 25 ng/ml) of the same substance?
Its value is 1.06.

What about the “ability of recombinant RTK ligand” value (Colo 829, PLX4720 - 2 uM, ligand 100 ng/ml) of the same substance?
Its value is 1.24.

What about the “ability of recombinant RTK ligand” value (Colo 829, PLX4720 - 2 uM, ligand 400 ng/ml) of the same substance?
Its value is 1.17.

What about the “ability of recombinant RTK ligand” value (G-361, PD184352 - 1 uM, ligand 1.6 ng/ml) of the same substance?
The value was 0.93.

What about the “ability of recombinant RTK ligand” value (G-361, PD184352 - 1 uM, ligand 6.25 ng/ml) of the same substance?
The value was 0.96.

What about the “ability of recombinant RTK ligand” value (G-361, PD184352 - 1 uM, ligand 25 ng/ml) of the same substance?
Its value is 0.98.

What about the “ability of recombinant RTK ligand” value (G-361, PD184352 - 1 uM, ligand 100 ng/ml) of the same substance?
The value was 1.01.

What about the “ability of recombinant RTK ligand” value (G-361, PD184352 - 1 uM, ligand 400 ng/ml) of the same substance?
The value was 1.17.

And the “ability of recombinant RTK ligand” value (G-361, PLX4720 - 2 uM, ligand 1.6 ng/ml)?
Its value is 0.87.

What about the “ability of recombinant RTK ligand” value (G-361, PLX4720 - 2 uM, ligand 6.25 ng/ml) of the same substance?
The value was 1.06.

What about the “ability of recombinant RTK ligand” value (G-361, PLX4720 - 2 uM, ligand 25 ng/ml) of the same substance?
The value was 0.93.

What about the “ability of recombinant RTK ligand” value (G-361, PLX4720 - 2 uM, ligand 100 ng/ml) of the same substance?
Its value is 0.99.

What about the “ability of recombinant RTK ligand” value (G-361, PLX4720 - 2 uM, ligand 400 ng/ml) of the same substance?
Its value is 1.14.

What about the “ability of recombinant RTK ligand” value (SK-MEL-5, PD184352 - 1 uM, ligand 1.6 ng/ml) of the same substance?
The value was 0.96.

And the “ability of recombinant RTK ligand” value (SK-MEL-5, PD184352 - 1 uM, ligand 6.25 ng/ml)?
The value was 0.97.

What about the “ability of recombinant RTK ligand” value (SK-MEL-5, PD184352 - 1 uM, ligand 25 ng/ml) of the same substance?
The value was 1.01.

What about the “ability of recombinant RTK ligand” value (SK-MEL-5, PD184352 - 1 uM, ligand 100 ng/ml) of the same substance?
The value was 1.06.

What about the “ability of recombinant RTK ligand” value (SK-MEL-5, PD184352 - 1 uM, ligand 400 ng/ml) of the same substance?
The value was 1.07.

And the “ability of recombinant RTK ligand” value (SK-MEL-5, PLX4720 - 2 uM, ligand 1.6 ng/ml)?
The value was 0.94.

What about the “ability of recombinant RTK ligand” value (SK-MEL-5, PLX4720 - 2 uM, ligand 6.25 ng/ml) of the same substance?
The value was 0.91.

And the “ability of recombinant RTK ligand” value (SK-MEL-5, PLX4720 - 2 uM, ligand 25 ng/ml)?
The value was 0.98.

And the “ability of recombinant RTK ligand” value (SK-MEL-5, PLX4720 - 2 uM, ligand 100 ng/ml)?
Its value is 1.04.

And the “ability of recombinant RTK ligand” value (SK-MEL-5, PLX4720 - 2 uM, ligand 400 ng/ml)?
Its value is 0.96.

What about the “ability of recombinant RTK ligand” value (SK-MEL-28, PD184352 - 1 uM, ligand 1.6 ng/ml) of the same substance?
The value was 1.09.

And the “ability of recombinant RTK ligand” value (SK-MEL-28, PD184352 - 1 uM, ligand 6.25 ng/ml)?
Its value is 1.08.

What about the “ability of recombinant RTK ligand” value (SK-MEL-28, PD184352 - 1 uM, ligand 25 ng/ml) of the same substance?
The value was 1.05.

And the “ability of recombinant RTK ligand” value (SK-MEL-28, PD184352 - 1 uM, ligand 100 ng/ml)?
The value was 1.08.

What about the “ability of recombinant RTK ligand” value (SK-MEL-28, PD184352 - 1 uM, ligand 400 ng/ml) of the same substance?
The value was 1.22.

And the “ability of recombinant RTK ligand” value (SK-MEL-28, PLX4720 - 2 uM, ligand 1.6 ng/ml)?
The value was 0.92.

What about the “ability of recombinant RTK ligand” value (SK-MEL-28, PLX4720 - 2 uM, ligand 6.25 ng/ml) of the same substance?
The value was 1.18.

What about the “ability of recombinant RTK ligand” value (SK-MEL-28, PLX4720 - 2 uM, ligand 25 ng/ml) of the same substance?
Its value is 1.09.

And the “ability of recombinant RTK ligand” value (SK-MEL-28, PLX4720 - 2 uM, ligand 100 ng/ml)?
Its value is 1.09.

And the “ability of recombinant RTK ligand” value (SK-MEL-28, PLX4720 - 2 uM, ligand 400 ng/ml)?
The value was 1.19.
